Measurements reported in patent US20240018133A1, “MODULATORS OF THE INTEGRATED STRESS PATHWAY” (Calico Life Sciences LLC, priority 2019, published 2024).

Test system: ATF4 luciferase reporter (human full-length ATF4 5'-UTR fused to firefly luciferase) in HEK293T cells
Experiment: ATF4-Luc assay (in vitro model of VWMD): HEK293T cells carrying ATF4 luciferase reporter, tunicamycin-treated
Format: cell-based
Details: Homo sapiens, HEK-293T, 1 μg/mL tunicamycin, 7 hours, One Glo luminescence
Experimental: In order to test exemplary compounds of the invention in a cellular context, a stable VWMD cell line was first constructed. The ATF4 reporter was prepared by fusing the human full-length ATF4 5′-UTR (NCBI Accession No. BC022088.2) in front of the firefly luciferase (FLuc) coding sequence lacking the initiator methionine as described in Sidrauski et al (eLife 2013). The construct was used to produce recombinant retroviruses using standard methods and the resulting viral supernatant was used to transduce HEK293T cells, which were then subsequently selected with puromycin to generate a stable cell line.
HEK293T cells carrying the ATF4 luciferase reporter were plated on polylysine coated 384-well plates (Greiner Bio-one) at 30,000 cells per well. Cells were treated the next day with 1 μg/mL tunicamycin and 200 nM of a compound of Formula (I) for 7 hours. Luminescence was measured using One Glo (Promega) as specified by the manufacturer. Cells were maintained in DMEM with L-glutamine supplemented with 10% heat-inactivated FBS (Gibco) and Antibiotic-Antimycotic solution (Gibco).
Table 2 below summarizes the EC50 data obtained using the ATF4-Luc assay for exemplary compounds of the invention.

Compound | EC50
O=C(COc1ccc(Cl)c(F)c1)N[C@@H]1C[C@@H]2O[C@H]1C[C@H]2NC(=O)[C@@H]1C[C@@H](O)c2cc(Cl)ccc2O1 (racemic) [Compound 369, (2S,4R)-6-chloro-N-{(1RS,2SR,4RS,5SR)-5-[2-(4-chloro-3-fluorophenoxy)acetamido]-7-oxabicyclo[2.2.1]heptan-2-yl}-4-hydroxy-3,4-dihydro-2H-1-benzopyran-2-carboxamide] | 10 to 50 nM
O=C(NC12CCC(NC(=O)[C@H]3C[C@@H](O)c4cc(Cl)ccc4O3)(C1)C2)c1ccc(OC(F)(F)F)cn1 [Compound 373, N-(4-{[(2R,4R)-6-chloro-4-hydroxy-3,4-dihydro-2H-1-benzopyran-2-carbonyl]amino}bicyclo[2.1.1]hexan-1-yl)-5-(trifluoromethoxy)pyridine-2-carboxamide] | 10 to 50 nM
O=C(COc1ccc(Cl)c(F)c1)NC12CC(NC(=O)c3cc(=O)c4ccc(OC(F)F)cc4o3)(C1)C2 [Compound 286, N-{3-[2-(4-chloro-3-fluorophenoxy)acetamido]bicyclo[1.1.1]pentan-1-yl}-7-(difluoromethoxy)-4-oxo-4H-1-benzopyran-2-carboxamide] | 50 to 250 nM
O=C(COc1ccc(Cl)c(F)c1)NC12CC(NC(=O)c3cc(=O)c4ccc(F)cc4o3)(C1)C2 [Compound 313, N-{3-[2-(4-chloro-3-fluorophenoxy)acetamido]bicyclo[1.1.1]pentan-1-yl}-7-fluoro-4-oxo-4H-1-benzopyran-2-carboxamide] | 10 to 50 nM
C[C@]1(O)C[C@H](C(=O)NC23CC(NC(=O)COc4ccc(Cl)c(F)c4)(C2)C3)Oc2ccc(Cl)cc21 (single isomer, unassigned) [Compound 281] | < 10 nM
O=C(COc1ccc(Cl)c(F)c1)NC12CC(NC(=O)[C@H]3C[C@@H](O)c4cc(F)c(Cl)cc4O3)(C1)C2 (single isomer, unassigned) [Compound 206] | < 10 nM
COC(=O)CN1C[C@@H](C(=O)NC23CC(NC(=O)COc4ccc(Cl)c(F)c4)(C2)C3)Oc2ccc(Cl)cc21 [Compound 211, methyl [(2S)-6-chloro-2-({3-[2-(4-chloro-3-fluorophenoxy)acetamido]bicyclo[1.1.1]pentan-1-yl}carbamoyl)-2,3-dihydro-4H-1,4-benzoxazin-4-yl]acetate] | 10 to 50 nM
C[C@]1(C(=O)NC23CC(NC(=O)COc4ccc(Cl)c(F)c4)(C2)C3)C[C@H](O)c2cc(Cl)ccc2O1 (racemic) [Compound 250, rac-(2R,4S)-6-chloro-N-{3-[2-(4-chloro-3-fluorophenoxy)acetamido]bicyclo[1.1.1]pentan-1-yl}-4-hydroxy-2-methyl-3,4-dihydro-2H-1-benzopyran-2-carboxamide] | 50 to 250 nM
O=C(NC12CC(NC(=O)[C@H]3C[C@@H](O)c4cc(Cl)ccc4O3)(C1)C2)c1cnc(C2CNC2)o1 [Compound 389, 2-(azetidin-3-yl)-N-(3-{[(2R,4R)-6-chloro-4-hydroxy-3,4-dihydro-2H-1-benzopyran-2-carbonyl]amino}bicyclo[1.1.1]pentan-1-yl)-1,3-oxazole-5-carboxamide] | > 2000 nM
CCc1ncc(C(=O)NC23CCC(NC(=O)[C@H]4C[C@@H](O)c5cc(Cl)ccc5O4)(CC2)C[C@@H]3O)o1 [Compound 274, N-[(2S)-4-{[(2R,4R)-6-chloro-4-hydroxy-3,4-dihydro-2H-1-benzopyran-2-carbonyl]amino}-2-hydroxybicyclo[2.2.2]octan-1-yl]-2-ethyl-1,3-oxazole-5-carboxamide] | 50 to 250 nM
O=C(COc1ccc(Cl)c(Cl)c1)NC12CC(NC(=O)[C@@H]3CC(=O)c4cc(F)c(F)cc4O3)(C1)C2 [Compound 342, (2S)—N-{3-[2-(3,4-dichlorophenoxy)acetamido]bicyclo[1.1.1]pentan-1-yl}-6,7-difluoro-4-oxo-3,4-dihydro-2H-1-benzopyran-2-carboxamide] | 10 to 50 nM
O=C(COc1ccc(Cl)c(F)c1)NC12CC(NC(=O)[C@H]3C[C@@H](NCCO)c4cc(Cl)ccc4O3)(C1)C2 [Compound 308, (2R,4R)-6-chloro-N-{3-[2-(4-chloro-3-fluorophenoxy)acetamido]bicyclo[1.1.1]pentan-1-yl}-4-[(2-hydroxyethyl)amino]-3,4-dihydro-2H-1-benzopyran-2-carboxamide] | 10 to 50 nM
O=C(COc1ccc(Cl)c(F)c1)NC12CC(NC(=O)C3CC(N[C@H]4C[C@@H](O)C4)c4cc(Cl)ccc4O3)(C1)C2 (mixture of isomers) [Compound 209, 6-chloro-N-{3-[2-(4-chloro-3-fluorophenoxy)acetamido]bicyclo[1.1.1]pentan-1-yl}-4-{[(1s,3s)-3-hydroxycyclobutyl]amino}-3,4-dihydro-2H-1-benzopyran-2-carboxamide] | 50 to 250 nM
O=C(COc1ccc(Cl)cn1)NC12CC(NC(=O)[C@H]3CC(=O)c4cc(Cl)ccc4O3)(C1)C2 [Compound 331, (2R)-6-chloro-N-(3-{2-[(5-chloropyridin-2-yl)oxy]acetamido}bicyclo[1.1.1]pentan-1-yl)-4-oxo-3,4-dihydro-2H-1-benzopyran-2-carboxamide] | 50 to 250 nM
O=C(COc1ccc(Cl)c(F)c1)NC12CC(NC(=O)[C@@H]3CC(=O)c4cc(Cl)ccc4O3)(C1)C2 [Compound 224, (2S)-6-chloro-N-{3-[2-(4-chloro-3-fluorophenoxy)acetamido]bicyclo[1.1.1]pentan-1-yl}-4-oxo-3,4-dihydro-2H-1-benzopyran-2-carboxamide] | < 10 nM
O=C(COc1ccc(Cl)c(F)c1)NC12CC(NC(=O)[C@H]3C[C@@H](O)c4cc(F)c(F)cc4O3)(C1)C2 [Compound 252, (2R,4R)—N-{3-[2-(4-chloro-3-fluorophenoxy)acetamido]bicyclo[1.1.1]pentan-1-yl}-6,7-difluoro-4-hydroxy-3,4-dihydro-2H-1-benzopyran-2-carboxamide] | < 10 nM
O=C(O)CNC1CC(C(=O)NC23CC(NC(=O)COc4ccc(Cl)c(F)c4)(C2)C3)Oc2ccc(Cl)cc21 (centres unmarked) [Compound 192, {[6-chloro-2-({3-[2-(4-chloro-3-fluorophenoxy)acetamido]bicyclo[1.1.1]pentan-1-yl}carbamoyl)-3,4-dihydro-2H-1-benzopyran-4-yl]amino}acetic acid] | 500 to 2000 nM
O=C(COc1ccc(Cl)c(F)c1)NC12CC(NC(=O)c3cc(=O)c4ccc(O)cc4o3)(C1)C2 [Compound 295, N-{3-[2-(4-chloro-3-fluorophenoxy)acetamido]bicyclo[1.1.1]pentan-1-yl}-7-hydroxy-4-oxo-4H-1-benzopyran-2-carboxamide] | > 2000 nM
O=C(COc1ccc(Cl)c(F)c1)NC12CC(NC(=O)C3CC(NC4(CO)CC4)c4cc(Cl)ccc4O3)(C1)C2 (centres unmarked) [Compound 339, 6-chloro-N-{3-[2-(4-chloro-3-fluorophenoxy)acetamido]bicyclo[1.1.1]pentan-1-yl}-4-{[1-(hydroxymethyl)cyclopropyl]amino}-3,4-dihydro-2H-1-benzopyran-2-carboxamide] | 10 to 50 nM
Cc1cc2oc(C(=O)NC34CC(NC(=O)COc5ccc(Cl)c(F)c5)(C3)C4)cc(=O)c2cc1Cl [Compound 236, 6-chloro-N-{3-[2-(4-chloro-3-fluorophenoxy)acetamido]bicyclo[1.1.1]pentan-1-yl}-7-methyl-4-oxo-4H-1-benzopyran-2-carboxamide] | < 10 nM
